Assay results as given in patent US8507195B2, “MiRNAs dysregulated in triple-negative breast cancer” (The Regents of the University of Colorado, priority 2009, dated 2013).

How the values were obtained:
Format in all cases: cell-based
MCF7 cells = assay: Real time RT-PCR of miRNAs in hormone-treated MCF7 cells; conditions: MCF7, estradiol and ICI
Procedure: Hormone Treatments. MCF7 cells were grown in phenol red-free media containing charcoal stripped serum for 24 hours prior to hormone treatments. The cells were treated with ethanol, 10 nM estradiol or a combination of 10 nM estradiol and 1 mM ICI 182,780 (ICI, Tocris Bioscience) for 6 h, 24 h or 48 h, as indicated, before harvesting RNA using Trizol (Invitrogen) as per the manufacturer's instructions.
Real Time RT-PCR. Poly A tailing and reverse transcription was performed using the NCode miRNA qRT-PCR kit (Invitrogen) as per manufacturer's instructions. SYBR green real time RT-PCR was performed using the Universal Forward Primer (Invitrogen) and miRNA specific primers. The specific primers used were: miR-193b 5′-[…]-3′ (SEQ ID NO: 10); miR-19b 5′-[…]-3′ (SEQ ID NO: 11); miR-20a 5′-[…]-3′ (SEQ ID NO: 12); miR-106a 5′-[…]-3′ (SEQ ID NO: 13); and miR-92b* 5′-[…]-3′ (SEQ ID NO: 14). Reported values are the means and standard errors of 3 biological replicates.
For miR-22, miR-221 and miR-7, taqman real time PCR was performed. Prior to generating cDNA, mRNA was treated with DNase1 (Invitrogen) for 15 min at room temperature. RNA was reverse transcribed into cDNA in a reaction containing reaction buffer, 10 mM DTT, 1 mM dNTPs, RNAse inhibitor (Promega), random hexamers (250 ng) and 200 U of MMUV-RT (ABI). The reaction proceeded at 25° C. for 10 min, then at 37° C. for 1 h. For normalization, real time RT-PCR was performed on the cDNA using ribosomal RNA primers and probe (ABI). TaqMan mRNA Reverse Transcription kit was used to generate cDNA for real time RT-PCR reaction in conjunction with a miR-22, miR-221 or miR-7 specific primers and probe (ABI). Reported values are the means and standard errors of three biological replicates.
The relative mRNA or miRNA levels were calculated using the comparative Ct method (ΔΔCt). Briefly, the Ct (cycle threshold) values for the rRNA were subtracted from Ct values of the target gene to achieve the ΔCt value. The 2^−ΔCt was calculated for each sample and then each of the values was then divided by a control sample to achieve the relative miRNA levels (ΔΔCt).

[1] = system: MCF10A (normal immortalized) cells; assay: Apoptosis in MCF10A cells after miR-193b transfection
FASN = assay: Immunoblot of FASN in triple-negative (BT549) cells after miR-193b mimic transfection; conditions: TN cells (BT549), 50 nM mimic, 72 h
Procedure: (§1) Transfections. BT549 or MDA-MB-231 cells were plated one day prior to transfection. Lipofectamine 2000 (Invitrogen) was incubated with the miRNA mimics for miR-22, miR-221, miR-193b or miR-7 (Ambion) or scrambled negative control (Ambion) at a concentration of 50 nM incubated in serum free media for 20 minutes prior to addition to the cells. Cells were incubated with the transfection mix at 37° C. for 4 h before replacement of FBS to 5%. Protein was harvested 72 h post-transfection using RIPA lysis buffer (1% NP40, 0.5% NaDeoxycholate, 0.1% SDS, 50 mM Tris, 150 mM NaCl, 5 mM EDTA) containing protease inhibitors.
(§2) Immunoblotting. Cell lysates (50 μg) in SDS sample buffer were denatured and separated on 8% SDS PAGE gels and transferred to PVDF membranes. The membranes were blocked in 5% milk in TBS-T, and then probed overnight at 4° C. […] After incubation with appropriate HRP-conjugated secondary antibody, results were detected using Western Lightning Chemiluminescence Reagent Plus (Perkin Elmer).

[2] = system: BT549 (triple negative) cells; assay: Apoptosis (PARP cleavage immunoblot) in triple-negative (BT549) cells; conditions: TN cells (BT549), 50 nM mimic, 72 h
Procedure: as §1, §2

ESR1 3′UTR = assay: Luciferase reporter assay, ESR1 3′UTR region ESR1-1, in MCF7 cells; conditions: ESR1-1 reporter, 50 nM each mimic, versus scrambled negative control
Source text: Luciferase Assays. A 360 bp fragment of the 3′ untranslated region of ESR1 containing the putative binding sites for miR-203, miR-221 and miR-22 was amplified by PCR from HeLa genomic DNA (NEB) using the following primers: ESR1-1 F 5′-[…]-3′ (SEQ ID NO: 6) and ESR1-1 R 5′-[…]-3′ (SEQ ID NO: 7). A 680 bp fragment containing the putative binding sites for miR-130/301, miR-148/152, miR-19 and miR-26 was amplified using the following primers: ESR1-2 F 5′-[…]-3′ (SEQ ID NO: 8) and ESR1-2 R 5′-[…]-3′ (SEQ ID NO: 9). MCF7 cells (20,000 cells/well) in a 96-well plate were transfected with the 100 nM of the negative control, 50 nM each of the miR-22, miR-221 or both as described above. After 24 h, the firefly reporter plasmid (0.196 μg) and a renilla luciferase normalization plasmid (0.004 μg/pRL-SV40, Promega) were transfected in using Lipofectamine 2000. Cells were collected 48 hours later for assay using the Dual Luciferase Reporter assay system (Promega).

## C[C@]12CC[C@@H]3c4ccc(O)cc4C[C@@H](CCCCCCCCC[S+]([O-])CCCC(F)(F)C(F)(F)F)[C@H]3[C@@H]1CC[C@@H]2O (stereo partly drawn) [ICI, ICI 182,780]
MCF7 cells; 24 h
  estradiol effect on miR-92b*: reversed
MCF7 cells; 48 h
  estradiol effect on miR-19b: abrogated
  estradiol effect on miR-20a: abrogated
  estradiol effect on miR-106a: abrogated

## miR-193b mimic: miRNA mimic for miR-193b (Ambion); miR-193b is SEQ ID NO:1 aacuggcccucaaagucccgcu (AACUGGCCCUCAAAGUCCCGCU; mimic duplex, complementary strand not listed, further chemistry not given here)
[1]
  apoptosis: no apoptosis
FASN
  FASN protein: almost complete repression
[2]
  PARP cleavage: complete PARP cleavage
  apoptosis, as seen by the appearance of cleaved PARP: increase in apoptosis

## miR-221 mimic: miRNA mimic for miR-221 (Ambion); hsa-miR-221 sequence agcuacauugucugcuggguuuc (AGCUACAUUGUCUGCUGGGUUUC; chemistry not given here)
ESR1 3′UTR
  decrease in luciferase activity: 13.7%
